These results are taken from US20250248980A1, “IMMUNE MODULATORY AGENTS” (PRESIDENT AND FELLOWS OF HARVARD COLLEGE, priority 2022, published 2025).

Entries after “also recorded” stand apart in the source; their conditions may differ. Like-named read-outs stand apart in the source and are kept apart here.

Common to all, as to format: cell-based
Assay [1] has as its target T1, IL-17 receptor (the IL-17RA-IL-17RC heterodimer) (Mus musculus, UniProt Q60943+Q8K4C2, F156E).
T1 sequence (Q60943 32-358): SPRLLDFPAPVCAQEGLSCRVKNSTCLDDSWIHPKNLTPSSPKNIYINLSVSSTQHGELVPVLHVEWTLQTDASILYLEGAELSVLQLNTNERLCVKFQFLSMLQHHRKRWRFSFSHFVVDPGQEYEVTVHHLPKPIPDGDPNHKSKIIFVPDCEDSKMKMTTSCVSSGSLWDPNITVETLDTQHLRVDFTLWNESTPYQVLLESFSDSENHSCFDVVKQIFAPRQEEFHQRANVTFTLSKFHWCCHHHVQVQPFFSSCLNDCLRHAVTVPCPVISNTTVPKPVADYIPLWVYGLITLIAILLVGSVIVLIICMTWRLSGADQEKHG
T1 sequence (Q8K4C2 22-500 F156E): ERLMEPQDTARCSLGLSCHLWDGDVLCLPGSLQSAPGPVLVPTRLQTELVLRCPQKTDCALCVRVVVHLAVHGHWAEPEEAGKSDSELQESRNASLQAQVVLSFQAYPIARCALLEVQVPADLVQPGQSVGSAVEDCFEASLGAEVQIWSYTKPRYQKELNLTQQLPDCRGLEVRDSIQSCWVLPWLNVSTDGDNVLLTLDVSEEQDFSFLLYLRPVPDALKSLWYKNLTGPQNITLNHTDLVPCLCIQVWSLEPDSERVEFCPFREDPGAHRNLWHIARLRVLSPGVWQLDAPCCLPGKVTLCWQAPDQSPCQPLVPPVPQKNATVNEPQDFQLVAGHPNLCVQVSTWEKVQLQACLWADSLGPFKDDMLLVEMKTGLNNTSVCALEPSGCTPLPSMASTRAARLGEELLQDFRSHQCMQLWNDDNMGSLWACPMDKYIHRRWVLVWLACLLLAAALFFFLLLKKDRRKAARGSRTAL
T1 sequence (Q62386 26-158 partner): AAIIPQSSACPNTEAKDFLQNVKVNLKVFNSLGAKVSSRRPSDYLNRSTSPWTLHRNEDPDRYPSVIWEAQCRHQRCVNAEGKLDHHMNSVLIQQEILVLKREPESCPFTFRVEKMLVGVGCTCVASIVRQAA
Nature of the assay: IL-17A-receptor (IL-17RA/IL-17RC) GFP reporter cell screen. Conditions: for specificity for IL-17A-receptor reporter over other cytokine receptor reporters: in words; for Emax / IC50: reducing IL-17A-receptor reporter activities; for Emax: maximal effect at high compound concentrations; for IC50: GFP percentage by microscope, 48 hours. The procedure: (§1) FIG. 5 is a dot plot showing the identification of small-molecule compounds that reduce IL-17A or TNF-a receptor activities. Small-molecule screens were performed with 114,665 compounds. Individual compounds were added to IL-17A-reporters or TNF-a-reporters following the addition of respective ligands such as IL-17A or TNF-a (25 ng/ml). The reporter cells were then incubated for additional 48 hours before subjecting them for microscopic analyses (GFP percentage was measured by microscope). Anti-IL17A and anti-TNFa antibodies were used as the positive controls.
To identify small molecule compounds that control IL-17R activity, a screening platform was used to monitor IL-17a binding to its receptor. Upon IL-17a binding to its receptor subunit A (IL-17RA), another receptor subunit IL-17RC is recruited, and these two subunits form a heterodimer. In the exemplary reporter system, a transcription factor (tTA) was tethered, via a protease cleavage site, to IL-17RA. In addition, a tobacco etch virus (TEV) protease was fused to the receptor subunit IL-17RC. Upon the IL-17a-dependent recruitment of IL-17RC-TEV to IL-17RA-tTA, the tTA is cleaved off from its membrane anchor IL-17RA. The released tTA then enters the nucleus and activates the reporter gene (e.g., in this case, GFP). The IL-17RA/RC reporter system responds highly selectively to IL-17a, but not to other related IL-17 family cytokines (except IL-17f).
(§2) Two thousand reporter cells per well (384-well plates) were seeded in 30 ul cell culture medium with either IL-17A (25 ng/ml, unless otherwise indicated) or TNFa ligand (25 ng/ml, unless otherwise indicated); additional screens were performed with IL-17A at 7.5 ng/ml. Then 100 nl of the individual compound was added by a pin transfer and cultured for two days in a CO2 incubator. For the cell viability test, 10 ul HOECHST 33342 was added and incubated for 10 min, followed by the addition of 10 ul 4% PFA. After a 10 min incubation, the reporter cells were washed twice with phosphate-buffered saline (PBS) and kept in 30 ul PBS. The images were acquired and analyzed using an IMAGEXPRESS confocal microscope. For storage, plates were sealed with black light-absorbing films.

Assay [2] relates to IL17A-dependent gene expression in mouse keratinocytes. Briefly: IL17A-dependent gene expression in mouse keratinocytes (RT-qPCR, secondary assay, FIG. 11). Conditions: 10 μM compound, 5 ng/ml IL17A, 24 hours. Here is the method: Mouse keratinocytes were cultured and stimulated with 5 ng/ml IL17A for 24 hours. During the treatment, 10 μM of each compound was added, and reverse transcription-quantitative polymerase chain reaction (RT-qPCR) was used for the gene expression level analyses of the following genes: cxcl1, cxcl2, cxcl5, 24p3, zc3h12a, S100a8, and S100a9. The top-down order of the treatment conditions indicated in the legend correspond to the left-right order of the bars for each gene. […] Compounds C770-0711 (2), C770-0720 (3), 60546479 (6), C881-0413 (9), and LAS 51593897 (11) are also of interest (see grey boxes).
For orientation: In qPCR the cycle at which signal appears reflects the starting amount.

Assay [3] concerns the target T2, TNF-a receptor (TNF-R1 reporter cells) (Homo sapiens, UniProt P19438).
T2 construct: expressed in transfected cells; development described in WO2022125865A2
Briefly: TNF-a-receptor GFP reporter cell screen. Conditions: reducing TNF-a-receptor reporter activities; for IC50: GFP percentage by microscope, 48 hours; for Emax: maximal effect at high compound concentrations. Here is the method:
as §1
The IL-17RA/IL-17RC reporter system was used to identify the IL-17a-specific immune modulatory agents, as described herein (see e.g., compounds (1)-(16)). Furthermore, the IL-17A systems and methods were applied to generate other cytokine/cytokine receptor reporter system (tTA fused onto one receptor subunit via a protease cleavage site, TEV fused to another receptor subunit, optimal linkers inserted between different proteins to ensure high signal-to-background ratio; e.g., for identifying TNF-α-specific immune modulatory agents). The screening platform provided herein was used to identify immune modulatory agents including, but not limited to, small molecules and proteins that modulate IL-17A or TNF-α cytokine signaling.
as §2

Usually Emax stands for the maximal effect, on the per cent scale that the assay sets. Take `CCOC(=O)c1ccc(NC(=O)CCc2c(C)nc3c(c(C)nn3C)c2C)cc1` [Compound 8]: the “specificity for IL-17A-receptor reporter over other cytokine receptor reporters” value in assay [1] is “reduce IL-17A-, not TNF-a-, receptor reporter activities”. The Emax in assay [1] (read-out: Emax) came out at 94%. Also, the “effect on IL17A-dependent gene expression” value (shortened to “effect”) in assay [2] is on record as “inhibitory activities; also recorded: robust inhibitory effects”.

In general, IC50 refers to the concentration needed to halve the response being measured. A high value points to lower potency. As for `O=C(Nc1ccc(Cl)cc1Cl)c1cc(S(=O)(=O)N2CCCCCC2)ccc1F` [Compound 7], in assay [1], it took 15000 nM to reach half-maximal inhibition (IC50) and the Emax is reported as 57%.

On to `CCOC(=O)c1ccccc1NC(=O)N1CCCN(S(=O)(=O)c2ccc3c(ccn3CC)c2)CC1` [Compound 36], for which, in assay [3], the half-maximal inhibitory concentration (IC50) worked out at 7720 nM and the Emax was found to be 92%.

In assay [3], `CC(C)CN1CCc2[nH]cnc2C12CCN(C(=O)c1cccc(F)c1)CC2` [Compound 27] yielded an IC50 of 2160 nM and an Emax of 66%.

For `COc1cc(C(=O)NCCc2csc3nc(-c4ccccc4C)nn23)cc(OC)c1OC` [Compound 64], in assay [3], it took 4850 nM to reach half-maximal inhibition (IC50) and the Emax was 93%.

Turning to `Cc1ccc(Cn2c(CNS(=O)(=O)c3ccc(F)c(Cl)c3)nc3cccnc32)cc1` [Compound 45], in assay [3], the IC50 is 1300 nM and the Emax was 67%.

In assay [3], `COc1cc(CN2CCCC(CNC(=O)COc3ccccc3OC)C2)ccc1F` (centres unmarked) [Compound 49] displayed an IC50 of 791 nM and an Emax of 87%.

As to `Cc1ccc(NC(=O)Cn2cc3c(n2)CCCC3)cc1Cl` [Compound 9], in assay [1], the “specificity for IL-17A-receptor reporter over other cytokine receptor reporters” value was “reduce IL-17A-, not TNF-a-, receptor reporter activities”. In addition, the Emax in assay [1] (read-out: Emax) stood at 67%. In assay [2], the “effect” value was “inhibitory activities; also recorded: robust inhibitory effects”.

As for `CCc1ccc(S(=O)(=O)c2c(C(=O)c3ccccc3)cnc3ccc(CC)cc23)cc1` [Compound 1], in assay [1], the IC50 was determined as 4810 nM and the Emax is listed as 78%.

In assay [3], `O=C(c1ccccc1OC(F)(F)C(F)F)N1CCNC(=O)C12CCCC2` [Compound 76] gave an IC50 of 1360 nM and an Emax of 64%.

In assay [3], `CC(C)Oc1ccccc1-c1cccc(C(=O)NCCc2nncn2C)c1` [Compound 57] gave an IC50 of 2340 nM and an Emax of 47%.

Consider `CN(Cc1ccc2nonc2c1)C(=O)C(c1ccc(F)cc1)N1CCCCC1` (centres unmarked) [Compound 17], for which, in assay [3], half-maximal inhibition (IC50) was put at 1460 nM and the Emax amounted to 66%.

As to `CCc1ccccc1NC(=O)CN1C(=O)COc2ccc(S(=O)(=O)Nc3ccccc3)cc21` [Compound 16], in assay [3], the IC50 was 1580 nM and the maximum response (Emax) is 75%.

In assay [3], `O=C(NC1(CN2CCOCC2)CCCCC1)c1ccccc1N1CCOCC1` [Compound 40] returned an IC50 of 2160 nM and an Emax of 76%.

In assay [1], `CCc1ccc(S(=O)(=O)c2c(C(=O)c3ccc(C)c(C)c3)cnc3ccccc23)cc1` [Compound 5] had a half-inhibitory concentration (IC50) of 6820 nM and an Emax of 57%.

In the case of `COc1cc(NC(=O)C(Cc2ccccc2)NS(=O)(=O)c2cccs2)cc(OC)c1` (centres unmarked) [Compound 35], in assay [3], half-maximal inhibition (IC50) was put at 2560 nM and the Emax stood at 97%.

In the case of `CC(C)(CO)CNC1CC(C)(C)Cc2c1cnn2-c1cccc(F)c1` (centres unmarked) [Compound 63], in assay [3], the IC50 was determined as 1780 nM and the Emax is 65%.

In assay [3], `O=C(NCc1cccc(Cl)c1)C1(Cc2cscn2)CC2CCC1N2` (centres unmarked) [Compound 48] gave an IC50 of 3620 nM and an Emax of 68%.

In assay [3], `O=C(NCCNC(=O)C(c1ccc(F)cc1)N1CCCCC1)c1ccccc1Cl` (centres unmarked) [Compound 25] had an IC50 of 1670 nM and a maximum response (Emax) of 52%.

On to `O=C(CSC1=Nc2ccccc2N=C(c2ccc(F)cc2)C1)NCc1ccc(F)cc1` [Compound 23], for which, in assay [3], the concentration for half-maximal inhibition (IC50) was 5300 nM and the Emax is reported as 76%.

`CCN1CCOc2ccccc2CCCC2(CN(C(=O)c3cc(-c4ccccc4F)no3)CCO2)C1=O` (racemic) [Compound 11]: the “effect” value in assay [2] is recorded as “robust inhibitory effects”.

As for `COc1ccc(NC(=O)C(NS(=O)(=O)c2cccc3nsnc23)c2ccccc2)cc1` (centres unmarked) [Compound 38], in assay [3], 3990 nM corresponded to half-maximal inhibition (IC50) and the Emax turned out to be 91%.

Turning to `Cc1ccc(Cn2c(CNS(=O)(=O)c3ccc(Cl)s3)nc3cccnc32)cc1` [Compound 34], in assay [3], the IC50 amounted to 860 nM and the Emax is reported as 64%.

In assay [3], `Oc1cccc(CN2CCCC(NCc3cc(-c4ccccc4)no3)C2)c1` (centres unmarked) [Compound 51] showed an IC50 of 823 nM and a maximal effect (Emax) of 85%.

In assay [3], `CS(=O)(=O)c1ccc(C2(C(=O)N3CCSCC3)CCCCC2)cc1` [Compound 41] had an IC50 of 5890 nM and an Emax of 98%.

In assay [3], `COc1cccc(-c2nn(-c3ccccc3)cc2CN2CCC(NC(C)=O)C2)c1` (centres unmarked) [Compound 24] returned an IC50 of 610 nM and an Emax of 75%.

In assay [3], `CCCN(C/C=C/c1ccccc1)C(=O)CCc1cc2n(n1)CCCNC2` [Compound 52] yielded an IC50 of 8450 nM and an Emax of 90%.

In assay [3], `COc1cccc(CNC(=O)CSC2=Nc3ccccc3N=C(c3ccc(F)cc3)C2)c1` [Compound 12] had an IC50 of 6300 nM and an Emax of 32%.

On to `COCCn1ccnc1CN(CCO)CCCOc1ccc(Cl)cc1Cl` [Compound 13], for which, in assay [3], half-maximal inhibition (IC50) required 1950 nM and the Emax stood at 42%.

For `O=c1n(Cc2cccc3ccccc23)nc(C2CCCNC2)n1-c1ccccc1` (centres unmarked) [Compound 62], in assay [3], the IC50 amounted to 1820 nM and the maximal response (Emax) is on record as 60%.

Take `CC(C)C1N=C2c3ccccc3N=C(SCC(=O)NCc3ccc(F)cc3)N2C1=O` (centres unmarked) [Compound 61]: in assay [3], half-maximal inhibition (IC50) required 8780 nM and the Emax is on record as 88%.

With `COc1ccc(NC(=O)CSc2nc3ccccc3n2CC(=O)N(C)C2CCCCC2)cc1` [Compound 60], in assay [3], the IC50 worked out at 6980 nM and the maximal effect (Emax) is on record as 88%.
